One experiment deals with FoxO3a. Nature of the experiment: FoxO3a inhibition assay (GFP-FoxO3a nuclear to cytoplasmic translocation) in U2OS GFP-FoxO3a H212R reporter cells. The following applies: serum starved overnight, 30 minutes compound treatment, ratio of nuclear to cytosolic GFP intensity, AC50 = concentration that results in 50% activation or inhibition, read-out: FoxO AC50. Type of experiment: cell-based. Put shortly:
(§1)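 Serum-starved (overnight) cells treated with compounds at various doses for 30 min, then fixed in 4% paraformaldehyde and stained overnight at 4 °C for pAkt S473 with Hoechst nuclear counterstain; high-content imaging. FoxO3a readout: nuclear/cytosolic GFP ratio (%); Akt readout: total cellular pAkt intensity (%); DMSO = 0% activity.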

The next experiment concerns Akt. The experiment in a line: Akt activation assay (Phospho-AKT (Ser473) antibody staining) in U2OS GFP-FoxO3a H212R reporter cells. The class given is cell-based. Particulars: serum starved overnight, 30 minutes compound treatment, total cellular intensity of Phospho-Akt (Ser473) antibody staining, AC50 = concentration that results in 50% activation or inhibition. The method in brief:
as §1

The values that follow come from patent US10633350B2, “Diphenyl derivatives and uses thereof” (NOVARTIS AG, priority 2017, dated 2020).

Where two headings read alike, the source gives them in different places.

For the compound `Cc1cc(C(N)=O)nn1-c1ccc(Cc2ccc(-c3ccc(CN4CCN(CCO)CC4)nc3)cc2)cc1` [Example 32, 1-(4-(4-(6-((4-(2-hydroxyethyl)piperazin-1-yl)methyl)pyridin-3-yl)benzyl)phenyl)-5-methyl-1H-pyrazole-3-carboxamide], the AC50 amounted to 315 nM in the experiment on FoxO3a (Homo sapiens, 0.5 h) and 647 nM with Akt (Homo sapiens, 0.5 h).

Consider `Cc1nc(C(N)=O)nn1-c1ccc(Cc2ccc(C#CC3(O)CCCCC3)cc2)cc1` [Example 55, 1-(4-(4-((1-hydroxycyclohexyl)ethynyl)benzyl)phenyl)-5-methyl-1H-1,2,4-triazole-3-carboxamide], for which the AC50 is 96 nM with FoxO3a (Homo sapiens, 0.5 h) and 1290 nM with Akt (Homo sapiens, 0.5 h).

With `Cc1nc(C(N)=O)nn1-c1ccc(Cc2ccc(-c3ccc(C(=O)N4CCNCC4)cc3)cc2)cc1` [Example 25, 5-methyl-1-(4-((4′-(piperazine-1-carbonyl)-[1,1′-biphenyl]-4-yl)methyl)phenyl)-1H-1,2,4-triazole-3-carboxamide], the AC50 in the experiment on FoxO3a (Homo sapiens, 0.5 h) came to 135 nM; in the experiment on Akt (Homo sapiens, 0.5 h) it was 726 nM.

With `Cc1nnc(-c2cccc(-c3ccc(C(C)(C)c4ccc(-n5nc(C(N)=O)nc5C)cc4)cc3)c2)o1` [Example 13-13], the AC50 in the experiment with FoxO3a (Homo sapiens, 0.5 h) turned out to be 179 nM; in the experiment on Akt (Homo sapiens, 0.5 h) it was 506 nM.

Consider `Cc1nc(C(N)=O)nn1-c1ccc(C(C)(C)c2ccc(-c3ccc4ncccc4c3)cc2)cc1` [Example 13-3], for which the AC50 in the experiment with FoxO3a (Homo sapiens, 0.5 h) amounted to 311 nM; with Akt (Homo sapiens, 0.5 h), 943 nM.

In the case of `Cc1cc(C(N)=O)nn1-c1ccc(C(C)(C)c2ccc(C3=CCC(N4CCOCC4)CC3)cc2)cc1` (stereo not drawn) [Example 8, 5-methyl-1-(4-(2-(4′-morpholino-2′,3′,4′,5′-tetrahydro-[1,1′-biphenyl]-4-yl)propan-2-yl)phenyl)-1H-pyrazole-3-carboxamide], the AC50 in the experiment on FoxO3a (Homo sapiens, 0.5 h) is 96 nM; with Akt (Homo sapiens, 0.5 h), 377 nM.

For the compound `Cc1nc(-c2ccc(Cc3ccc(-n4nc(C(N)=O)cc4C)cc3)cc2)ccc1C(C)(C)O` [Example 20, 1-(4-(4-(5-(2-hydroxypropan-2-yl)-6-methylpyridin-2-yl)benzyl)phenyl)-5-methyl-1H-pyrazole-3-carboxamide], the concentration at half-maximal activity (AC50) in the experiment on FoxO3a (Homo sapiens, 0.5 h) turned out to be 91 nM; with Akt (Homo sapiens, 0.5 h) it was 208 nM.

With `Cc1cc(C(N)=O)nn1-c1ccc(Cc2ccc(-c3ccc(CN4CCC4)cc3)cc2)cc1` [Example 16-8], the AC50 in the experiment on FoxO3a (Homo sapiens, 0.5 h) is 117 nM; with Akt (Homo sapiens, 0.5 h), 300 nM.

Consider `Cc1cc(C(N)=O)nn1-c1ccc(Cc2ccc(C3=CCN(C)CC3)cc2)cc1` [Example 3-15, 5-methyl-1-(4-(4-(1-methyl-1,2,3,6-tetrahydropyridin-4-yl)benzyl)phenyl)-1H-pyrazole-3-carboxamide], for which the AC50 was 31 nM with FoxO3a (Homo sapiens, 0.5 h) and 83 nM with Akt (Homo sapiens, 0.5 h).

With `Cc1nc(C(N)=O)nn1-c1ccc(Cc2ccc(C#CC3CCN(C)CC3)cc2)cc1` [Example 54, 5-methyl-1-(4-(4-((1-methylpiperidin-4-yl)ethynyl)benzyl)phenyl)-1H-1,2,4-triazole-3-carboxamide], the AC50 with FoxO3a (Homo sapiens, 0.5 h) came out at 248 nM; in the experiment with Akt (Homo sapiens, 0.5 h), 528 nM.

On to `Cc1cc(C(N)=O)nn1-c1ccc(Cc2ccc(-c3ccc(CN(C)C)nc3)cc2)cc1` [Example 5-3, 1-(4-(4-(6-((dimethylamino)methyl)pyridin-3-yl)benzyl)phenyl)-5-methyl-1H-pyrazole-3-carboxamide], for which the AC50 in the experiment on FoxO3a (Homo sapiens, 0.5 h) came out at 136 nM; with Akt (Homo sapiens, 0.5 h), 425 nM.

Regarding `Cc1nc(C(N)=O)nn1-c1ccc(Cc2ccc(-c3ccc(CN4CCC(C)(C)CC4)cc3)cc2)cc1` [Example 38-10], the AC50 in the experiment with FoxO3a (Homo sapiens, 0.5 h) is 175 nM; with Akt (Homo sapiens, 0.5 h), 397 nM.

For the compound `Cc1cc(C(N)=O)nn1-c1ccc(Cc2ccc(-c3ccc(CNC4CCC4)cc3)cc2)cc1` [Example 16-3], the AC50 with FoxO3a (Homo sapiens, 0.5 h) was determined as 500 nM; in the experiment with Akt (Homo sapiens, 0.5 h), 804 nM.

In the case of `Cc1nc(C(N)=O)nn1-c1ccc(Cc2ccc(-c3ccc(CN4CCN(C)[C@@H](C)C4)nc3)cc2)cc1` [Example 37, (S)-1-(4-(4-(6-((3,4-dimethylpiperazin-1-yl)methyl)pyridin-3-yl)benzyl)phenyl)-5-methyl-1H-1,2,4-triazole-3-carboxamide], the AC50 with FoxO3a (Homo sapiens, 0.5 h) was found to be 276 nM; in the experiment on Akt (Homo sapiens, 0.5 h), 498 nM.

Turning to `Cc1cc(C(N)=O)nn1-c1ccc(Cc2ccc(-c3ccc(CN4CCNCC4)cn3)cc2)cc1` [Example 31-3, 5-methyl-1-(4-(4-(5-(piperazin-1-ylmethyl)pyridin-2-yl)benzyl)phenyl)-1H-pyrazole-3-carboxamide], the AC50 was 158 nM in the experiment with FoxO3a (Homo sapiens, 0.5 h) and 190 nM in the experiment on Akt (Homo sapiens, 0.5 h).

Turning to `Cc1cc(C(N)=O)nn1-c1ccc(Cc2ccc(-c3ccnc(CN(C)C)c3)cc2)cc1` [Example 5-4, 1-(4-(4-(2-((dimethylamino)methyl)pyridin-4-yl)benzyl)phenyl)-5-methyl-1H-pyrazole-3-carboxamide], the AC50 with FoxO3a (Homo sapiens, 0.5 h) was found to be 160 nM; with Akt (Homo sapiens, 0.5 h), 789 nM.

As for `Cc1cc(C(N)=O)nn1-c1ccc(Cc2ccc(-c3ccc(CN4CCCC4)cc3)cc2)cc1` [Example 3-1, 5-methyl-1-(4-((4′-(pyrrolidin-1-ylmethyl)-[1,1′-biphenyl]-4-yl)methyl)phenyl)-1H-pyrazole-3-carboxamide], the AC50 in the experiment on FoxO3a (Homo sapiens, 0.5 h) amounted to 36 nM; in the experiment on Akt (Homo sapiens, 0.5 h), 135 nM.

Regarding `Cc1cc(C(N)=O)nn1-c1ccc(C(C)(C)c2ccc(-c3ccc(CN4CCCC4)cc3)cc2)cc1` [Example 6-1, 5-methyl-1-(4-(2-(4′-(pyrrolidin-1-ylmethyl)-[1,1′-biphenyl]-4-yl)propan-2-yl)phenyl)-1H-pyrazole-3-carboxamide], the AC50 with FoxO3a (Homo sapiens, 0.5 h) was 115 nM; in the experiment with Akt (Homo sapiens, 0.5 h), 292 nM.

In the case of `Cc1nc(C(N)=O)nn1-c1ccc(C(C)(C)c2ccc(-c3ccc4scnc4c3)cc2)cc1` [Example 13-7], the AC50 with FoxO3a (Homo sapiens, 0.5 h) worked out at 159 nM; in the experiment on Akt (Homo sapiens, 0.5 h), 504 nM.

For the compound `Cc1cc(C(N)=O)nn1-c1ccc(C(C)(C)c2ccc(-c3ccc(C4(N)COC4)cc3)cc2)cc1` [Example 12, 1-(4-(2-(4′-(3-aminooxetan-3-yl)-[1,1′-biphenyl]-4-yl)propan-2-yl)phenyl)-5-methyl-1H-pyrazole-3-carboxamide], the AC50 in the experiment on FoxO3a (Homo sapiens, 0.5 h) is 93 nM; in the experiment on Akt (Homo sapiens, 0.5 h) it was 283 nM.

As to `Cc1cc(C(N)=O)nn1-c1ccc(Cc2ccc(-c3ccc(CNCCO)cc3)cc2)cc1` [Example 16-2], the AC50 worked out at 138 nM in the experiment on FoxO3a (Homo sapiens, 0.5 h) and 426 nM in the experiment on Akt (Homo sapiens, 0.5 h).

Consider `Cc1nc(C(N)=O)nn1-c1ccc(Cc2ccc(-c3ccc(CN4CC5(COC5)C4)cc3)cc2)cc1` [Example 38-4], for which the AC50 in the experiment with FoxO3a (Homo sapiens, 0.5 h) is 62 nM; in the experiment with Akt (Homo sapiens, 0.5 h), 207 nM.

`Cc1cc(-c2ccc(C(C)(C)c3ccc(-n4nc(C(N)=O)nc4C)cc3)cc2)ccn1` [Example 13-9]: the AC50 in the experiment on FoxO3a (Homo sapiens, 0.5 h) came to 183 nM; with Akt (Homo sapiens, 0.5 h), 714 nM.

For `Cc1nc(C(N)=O)nn1-c1ccc(Cc2ccc(-c3ccc(CN4CCC(C)(O)CC4)cc3)cc2)cc1` [Example 39-6], the half-maximal activity concentration (AC50) with FoxO3a (Homo sapiens, 0.5 h) was determined as 9 nM; in the experiment on Akt (Homo sapiens, 0.5 h), 5 nM.

As for `Cc1nc(C(N)=O)nn1-c1ccc(Cc2ccc(-c3ccc(CN4CC[C@@H](O)C4)cc3)cc2)cc1` [Example 39-4], the AC50 in the experiment on FoxO3a (Homo sapiens, 0.5 h) was determined as 26 nM; in the experiment with Akt (Homo sapiens, 0.5 h) it was 92 nM.

`Cc1cc(C(N)=O)nn1-c1ccc(Cc2ccc(C3CCN(C)C3)cc2)cc1` (single isomer, unassigned) [Example 5-1, 5-methyl-1-(4-(4-(1-methylpyrrolidin-3-yl)benzyl)phenyl)-1H-pyrazole-3-carboxamide]: the AC50 in the experiment on FoxO3a came out at 295 nM; in the experiment with Akt (Homo sapiens, 0.5 h), 1320 nM.

For `Cc1cc(C(N)=O)nn1-c1ccc(Cc2ccc(-c3ccc(C(=O)N4CCN[C@@H](CO)C4)cc3)cc2)cc1` [Example 28, (R)-1-(4-((4′-(3-(hydroxymethyl)piperazine-1-carbonyl)-[1,1′-biphenyl]-4-yl)methyl)phenyl)-5-methyl-1H-pyrazole-3-carboxamide], the AC50 in the experiment on FoxO3a (Homo sapiens, 0.5 h) was found to be 26 nM; with Akt (Homo sapiens, 0.5 h) it was 73 nM.

For `Cc1nc(C(N)=O)nn1-c1ccc(Cc2ccc(-c3ccc(CN4CCC[C@H]4CO)cc3)cc2)cc1` [Example 39-38], the AC50 with FoxO3a (Homo sapiens, 0.5 h) stood at 48 nM; with Akt (Homo sapiens, 0.5 h), 119 nM.

With `Cc1nc(C(N)=O)nn1-c1ccc(Cc2ccc(-c3ccc(C(C)(C)CO)cn3)cc2)cc1` [Example 56, 1-(4-(4-(5-(1-hydroxy-2-methylpropan-2-yl)pyridin-2-yl)benzyl)phenyl)-5-methyl-1H-1,2,4-triazole-3-carboxamide], the AC50 was 156 nM in the experiment on FoxO3a (Homo sapiens, 0.5 h) and 366 nM in the experiment on Akt (Homo sapiens, 0.5 h).

As to `Cc1cc(C(N)=O)nn1-c1ccc(Cc2ccc(-c3ccc(CC4CCCN4CO)cc3)cc2)cc1` (stereo not drawn) [Example 16-7], the AC50 was 9 nM in the experiment on FoxO3a (Homo sapiens, 0.5 h) and 24 nM in the experiment with Akt (Homo sapiens, 0.5 h).

For the compound `Cc1cc(C(N)=O)nn1-c1ccc(Cc2ccc(-c3ccccc3)cc2)cc1` [Example 3-8, 1-(4-([1,1′-biphenyl]-4-ylmethyl)phenyl)-5-methyl-1H-pyrazole-3-carboxamide], the AC50 with FoxO3a (Homo sapiens, 0.5 h) turned out to be 383 nM; with Akt (Homo sapiens, 0.5 h) it was 960 nM.

As for `Cc1cc(C(N)=O)nn1-c1ccc(Cc2ccc(-c3cccnc3)cc2)cc1` [Example 3-10, 5-methyl-1-(4-(4-(pyridin-3-yl)benzyl)phenyl)-1H-pyrazole-3-carboxamide], the AC50 in the experiment on FoxO3a (Homo sapiens, 0.5 h) was determined as 110 nM; in the experiment with Akt (Homo sapiens, 0.5 h), 497 nM.

For `Cc1cc(C(N)=O)nn1-c1ccc(Cc2ccc(C3CCN(C)C3)cc2)cc1` (single isomer, unassigned) [Example 5-2, 5-methyl-1-(4-(4-(1-methylpyrrolidin-3-yl)benzyl)phenyl)-1H-pyrazole-3-carboxamide], the AC50 was determined as 792 nM in the experiment on FoxO3a and 2500 nM in the experiment on Akt.

As a reminder, the AC50 is the concentration giving half of the maximal activity seen.
